Experimental data as given in patent US20140128402A1, “PHARMACEUTICAL COMBINATION” (IPCA Laboratories Limited, priority 2011, published 2014).

Experiments:
Assay type in all cases: in vivo, Wistar rats
[1] = test system: STZ-induced diabetic rats; test: Study No 2: body weight, water intake and food intake in STZ-induced diabetic rats; details: for AVERAGE FOOD INTAKE / AVERAGE WATER INTAKE / Body Weight: oral
[2] = test system: STZ induced diabetic rats; test: Study No 2: blood glucose in STZ induced diabetic rats (HCQ with vildagliptin and saxagliptin); details: for Plasma glucose concentration: oral
Method: In this experiment 96 Wistar rats weighing 150-200 g of either sex were divided randomly into 16 groups consisting of 6 rats each. The study drugs were dissolved in water/suspended in vehicle [0.1% w/v suspension of Tween 80 and carboxymethylcellulose (CMC) in water] and administered orally for 28 days. Group 1 (normal vehicle control) consisted of normal rats that neither received Streptozotocin (STZ) nor any test drug; Group 2 served as Streptozotocin induced diabetic control [Diabetes was induced in rats by single administration of Streptozotocin (55 mg/kg/i.p.) dissolved in 0.1 M-citrate buffer, pH 4.5]. Forty-eight hours later, blood samples were collected and glucose levels were determined to confirm the development of diabetes. Only animals showing hyperglycaemia (blood glucose levels>250 mg/dl) were considered as diabetic and received vehicle orally; Group 3 was diabetic rats treated with hydroxychloroquine (HCQ) (22.5 mg/kg); Group 4 was diabetic rats treated with HCQ (45 mg/kg), Group 5 was diabetic rats treated with vildagliptin (VG) 6 mg/kg; Group 6 was diabetic rats treated with VG 12 mg/kg; Group 7 was diabetic rats treated with HCQ 22.5 mg/kg+VG 12 mg/kg and Group 8 was diabetic rats treated with combination of HCQ 45 mg/kg and VG 6 mg/kg; Group 9 was diabetic rats treated with saxagliptin (SG) 0.3 mg/kg; Group 10 was diabetic rats treated with Saxagliptin (SG) 0.6 mg/kg; Group 11 was diabetic rats treated with combination of HCQ 45 mg/kg+SG 0.3 mg/kg; Group 12 was diabetic rats treated with combination of HCQ 22.5 mg/kg+SG 0.6 mg/kg; Group 13 was diabetic rats treated with combination of HCQ 22.5 mg/kg and VG 6 mg/kg; Group 14 was diabetic rats treated with combination of HCQ 45 mg/kg and VG 12 mg/kg; Group 15 was diabetic rats treated with combination of HCQ 22.5 mg/kg+SG 0.3 mg/kg; Group 16 was diabetic rats treated with combination of HCQ 45 mg/kg+SG 0.6 mg/kg.
Blood glucose level was measured in normal and experimental rats at 0, 7th, 14th, 21st and 28th day of administration.

[3] = test system: STZ-induced diabetic rats; test: Study No 2: biochemical parameters in STZ-induced diabetic rats
[4] = test system: STZ-induced diabetic rats; test: Study No 1: biochemical parameters in STZ-induced diabetic rats; details: after 21 days
Method: (§1) In this experiment 48 Wistar rats weighing 130-150 g of either sex were divided randomly into 8 groups consisting of 6 rats each. The study drugs suspended in vehicle [0.1% w/v suspension of Tween 80 and carboxymethylcellulose (CMC) in water] were administered for orally for 21 days. Group 1 (normal vehicle control) consisted of normal rats that neither received streptozotocin nor any test drug; Group 2 served as streptozotocin induced diabetic control (Diabetes was induced in rats by single administration of streptozotocin (60 mg/kg/i.p) dissolved in 0.1 M-citrate buffer, pH 4.5). Forty-eight hours later, blood samples were collected and glucose levels were determined to confirm the development of diabetes. […] Group 3 was diabetic rats treated with dose equivalent to human therapeutic dose of sitagliptin (STG) (11 mg/kg); Group 4 was diabetic rats treated with dose equivalent to human therapeutic dose of Hydroxychloroquine (HCQ) (46 mg/kg), Group 5 was diabetic rats treated with combination of HCQ 46 mg/kg and STG11 mg/kg; […] For other biochemical parameters i.e. […] Other parameters like body weight, food intake and water intake were evaluated weekly till day 21st.

[5] = test system: STZ-induced diabetic rats; test: Study No 1: body weight, food intake and water intake in STZ-induced diabetic rats; details: for AVERAGE WATER INTAKE: oral
Method: as §1

[6] = Day 0, HCQ 22.5, VG 6, SG 0.3 mg/kg alone, HCQ+VG 22.5+6, HCQ+SG 22.5+0.3 mg/kg/day
[7] = Day 0, HCQ 45, VG 12, SG 0.6 mg/kg alone, HCQ+VG 45+12, HCQ+SG 45+0.6 mg/kg/day
[8] = Day 7, HCQ 22.5, VG 6, SG 0.3 mg/kg alone, HCQ+VG 22.5+6, HCQ+SG 22.5+0.3 mg/kg/day
[9] = Day 7, HCQ 45, VG 12, SG 0.6 mg/kg alone, HCQ+VG 45+12, HCQ+SG 45+0.6 mg/kg/day
[10] = Day 14, HCQ 22.5, VG 6, SG 0.3 mg/kg alone, HCQ+VG 22.5+6, HCQ+SG 22.5+0.3 mg/kg/day
[11] = Day 14, HCQ 45, VG 12, SG 0.6 mg/kg alone, HCQ+VG 45+12, HCQ+SG 45+0.6 mg/kg/day
[12] = Day 21, HCQ 22.5, VG 6, SG 0.3 mg/kg alone, HCQ+VG 22.5+6, HCQ+SG 22.5+0.3 mg/kg/day
[13] = Day 21, HCQ 45, VG 12, SG 0.6 mg/kg alone, HCQ+VG 45+12, HCQ+SG 45+0.6 mg/kg/day
[14] = Day 28, HCQ 22.5, VG 6, SG 0.3 mg/kg alone, HCQ+VG 22.5+6, HCQ+SG 22.5+0.3 mg/kg/day
[15] = Day 28, HCQ 45, VG 12, SG 0.6 mg/kg alone, HCQ+VG 45+12, HCQ+SG 45+0.6 mg/kg/day
[16] = after 28 days, HCQ 22.5, VG 6, SG 0.3 mg/kg alone, HCQ+VG 22.5+6, HCQ+SG 22.5+0.3 mg/kg/day, oral
[17] = after 28 days, HCQ 45, VG 12, SG 0.6 mg/kg alone, HCQ+VG 45+12, HCQ+SG 45+0.6 mg/kg/day, oral
[18] = monotherapies, all the tested dose levels except HCQ (22.5 mg/kg), p≦0.05
[19] = subtherapeutic dose: STG 5.5, HCQ 23, STG+HCQ 5.5+23 mg/kg/day oral
[20] = therapeutic dose: STG 11, HCQ 46, STG+HCQ 11+46 mg/kg/day oral

## CCN(CCO)CCCC(C)Nc1ccnc2cc(Cl)ccc12 (stereo not shown) [HCQ, Hydroxychloroquine]
[1]; [6]
  AVERAGE FOOD INTAKE: 11.45 g
  AVERAGE WATER INTAKE: 25.05 mL
  Body Weight: 199.83 ± 17.7 g
[1]; [7]
  AVERAGE FOOD INTAKE: 11.67 g
  AVERAGE WATER INTAKE: 23.88 mL
  Body Weight: 198 ± 11.03 g
[1]; [8]
  AVERAGE FOOD INTAKE: 13.35 g
  AVERAGE WATER INTAKE: 24.11 mL
  Body Weight: 190.67 ± 11.41 g
[1]; [9]
  AVERAGE FOOD INTAKE: 13.39 g
  AVERAGE WATER INTAKE: 22.41 mL
  Body Weight: 184.17 ± 9.99 g
[1]; [10]
  AVERAGE FOOD INTAKE: 11.95 g
  AVERAGE WATER INTAKE: 23.29 mL
  Body Weight: 196.17 ± 10.93 g
[1]; [11]
  AVERAGE FOOD INTAKE: 12.05 g
  AVERAGE WATER INTAKE: 21.55 mL
  Body Weight: 190.67 ± 9.56 g
[1]; [12]
  AVERAGE FOOD INTAKE: 13.00 g
  AVERAGE WATER INTAKE: 26.34 mL
  Body Weight: 199.67 ± 10.52 g
[1]; [13]
  AVERAGE FOOD INTAKE: 12.75 g
  AVERAGE WATER INTAKE: 26.22 mL
  Body Weight: 194.67 ± 9.52 g
[1]; [14]
  AVERAGE FOOD INTAKE: 14.11 g
  AVERAGE WATER INTAKE: 25.44 mL
  Body Weight: 201.17 ± 8.7 g
[1]; [15]
  AVERAGE FOOD INTAKE: 14.00 g
  AVERAGE WATER INTAKE: 25.79 mL
  Body Weight: 198.17 ± 9.15 g
[1]; monotherapies, p≦0.05
  body weight as compared to diabetic control group: significant increase
[2]; Day 0, HCQ 22.5, VG 6, SG 0.3 mg/kg alone, HCQ+VG 22.5+6, HCQ+SG 22.5+0.3 mg/kg
  Plasma glucose concentration: 292.17 ± 26.12 mg/dL
[2]; Day 0, HCQ 45, VG 12, SG 0.6 mg/kg alone, HCQ+VG 45+12, HCQ+SG 45+0.6 mg/kg
  Plasma glucose concentration: 305.67 ± 27.14 mg/dL
[2]; Day 7, HCQ 22.5, VG 6, SG 0.3 mg/kg alone, HCQ+VG 22.5+6, HCQ+SG 22.5+0.3 mg/kg
  Plasma glucose concentration: 278 ± 22.59 mg/dL
[2]; Day 7, HCQ 45, VG 12, SG 0.6 mg/kg alone, HCQ+VG 45+12, HCQ+SG 45+0.6 mg/kg
  Plasma glucose concentration: 265.5 ± 8.87 mg/dL
[2]; Day 14, HCQ 22.5, VG 6, SG 0.3 mg/kg alone, HCQ+VG 22.5+6, HCQ+SG 22.5+0.3 mg/kg
  Plasma glucose concentration: 269.33 ± 11.45 mg/dL
[2]; Day 14, HCQ 45, VG 12, SG 0.6 mg/kg alone, HCQ+VG 45+12, HCQ+SG 45+0.6 mg/kg
  Plasma glucose concentration: 266.5 ± 15.86 mg/dL
[2]; Day 21, HCQ 22.5, VG 6, SG 0.3 mg/kg alone, HCQ+VG 22.5+6, HCQ+SG 22.5+0.3 mg/kg
  Plasma glucose concentration: 266.67 ± 24.68 mg/dL
[2]; Day 21, HCQ 45, VG 12, SG 0.6 mg/kg alone, HCQ+VG 45+12, HCQ+SG 45+0.6 mg/kg
  Plasma glucose concentration: 265.83 ± 9.22 mg/dL
[2]; Day 28, HCQ 22.5, VG 6, SG 0.3 mg/kg alone, HCQ+VG 22.5+6, HCQ+SG 22.5+0.3 mg/kg
  Plasma glucose concentration: 266.5 ± 11.33 mg/dL
[2]; Day 28, HCQ 45, VG 12, SG 0.6 mg/kg alone, HCQ+VG 45+12, HCQ+SG 45+0.6 mg/kg
  Plasma glucose concentration: 244.5 ± 18.1 mg/dL
[2]; alone at therapeutic equivalent doses, day 28
  blood glucose levels as compared to diabetic control group: significant improvement
[3]; [16]
  HbA1c: 11.28 ± 1.08 %
  Total Protein: 6.16 ± 0.41 gm/dl
  Urea: 24.68 ± 1.96 mg/dL
[3]; [17]
  Creatinine: 1.75 ± 0.29 mg/dL
  HbA1c: 11.07 ± 1.22 %
  Total Protein: 6.35 ± 0.79 gm/dl
  Urea: 23.37 ± 2.86 mg/dL
[3]; all tested doses, 28 days, p≦0.05
  HbA1c levels as compared to diabetic control: significantly (p≦0.05) reduced
[3]; monotherapies at all doses, 28 days, p≦0.05
  total protein level as compared to the diabetic control group: significant rise
[3]; [18]
  creatinine levels as compared to diabetic control group: significant reduction
  urea levels as compared to diabetic control group: significant reduction
[4]; [19]
  Creatinine: 1.79
  HDL-C: 24.99 mg/dL
  HbA1c: 5.30
  Insulin (serum): 4.71
  SGOT: 57.29
  SGPT: 58.12
  TC: 166.69 mg/dL
  TG: 130.65 mg/dL
  Total Protein: 4.03 g/dL
  Urea: 46.38 mg/dL
[4]; [20]
  Albumin: 2.33 g/dL
  Creatinine: 1.72
  HDL-C: 25.07 mg/dL
  HbA1c: 4.91
  Insulin (serum): 5.97
  SGOT: 53.77
  SGPT: 55.94
  TC: 158.57 mg/dL
  TG: 124.68 mg/dL
  Total Protein: 4.12 g/dL
  Urea: 43.85 mg/dL
[5]; Day 1, Sub-The (subtherapeutic dose)
  AVERAGE WATER INTAKE: 31.67 mL
[5]; Day 1, The (therapeutic dose)
  AVERAGE WATER INTAKE: 30.00 mL
[5]; Day 1, subtherapeutic dose: STG 5.5, HCQ 23, STG+HCQ 5.5+23 mg/kg oral
  Body Weight: 133.33 ± 17.67 g
[5]; Day 1, subtherapeutic dose: STG 5.5, HCQ 23, combination 5.5+23 mg/kg oral
  AVERAGE FOOD INTAKE: 12.17 g
[5]; Day 1, therapeutic dose: STG 11, HCQ 46, STG+HCQ 11+46 mg/kg oral
  Body Weight: 140.33 ± 14.60 g
[5]; Day 1, therapeutic dose: STG 11, HCQ 46, combination 11+46 mg/kg oral
  AVERAGE FOOD INTAKE: 11.50 g
[5]; Day 7, Sub-The (subtherapeutic dose)
  AVERAGE WATER INTAKE: 32.17 mL
[5]; Day 7, The (therapeutic dose)
  AVERAGE WATER INTAKE: 29.17 mL
[5]; Day 7, subtherapeutic dose: STG 5.5, HCQ 23, STG+HCQ 5.5+23 mg/kg oral
  Body Weight: 133.67 ± 16.61 g
[5]; Day 7, subtherapeutic dose: STG 5.5, HCQ 23, combination 5.5+23 mg/kg oral
  AVERAGE FOOD INTAKE: 11.50 g
[5]; Day 7, therapeutic dose: STG 11, HCQ 46, STG+HCQ 11+46 mg/kg oral
  Body Weight: 141.17 ± 14.26 g
[5]; Day 7, therapeutic dose: STG 11, HCQ 46, combination 11+46 mg/kg oral
  AVERAGE FOOD INTAKE: 10.33 g
[5]; Day 14, Sub-The (subtherapeutic dose)
  AVERAGE WATER INTAKE: 32.17 mL
[5]; Day 14, The (therapeutic dose)
  AVERAGE WATER INTAKE: 28.33 mL
[5]; Day 14, subtherapeutic dose: STG 5.5, HCQ 23, STG+HCQ 5.5+23 mg/kg oral
  Body Weight: 135.17 ± 16.29 g
[5]; Day 14, subtherapeutic dose: STG 5.5, HCQ 23, combination 5.5+23 mg/kg oral
  AVERAGE FOOD INTAKE: 11.83 g
[5]; Day 14, therapeutic dose: STG 11, HCQ 46, STG+HCQ 11+46 mg/kg oral
  Body Weight: 142.67 ± 13.52 g
[5]; Day 14, therapeutic dose: STG 11, HCQ 46, combination 11+46 mg/kg oral
  AVERAGE FOOD INTAKE: 8.67 g
[5]; Day 21, Sub-The (subtherapeutic dose)
  AVERAGE WATER INTAKE: 31.83 mL
[5]; Day 21, The (therapeutic dose)
  AVERAGE WATER INTAKE: 28.83 mL
[5]; Day 21, subtherapeutic dose: STG 5.5, HCQ 23, STG+HCQ 5.5+23 mg/kg oral
  Body Weight: 137.00 ± 15.75 g
[5]; Day 21, subtherapeutic dose: STG 5.5, HCQ 23, combination 5.5+23 mg/kg oral
  AVERAGE FOOD INTAKE: 11.67 g
[5]; Day 21, therapeutic dose: STG 11, HCQ 46, combination 11+46 mg/kg oral
  AVERAGE FOOD INTAKE: 8.33 g
